Experimental findings from paper PMC6968641, “N-monoarylacetothioureas as potent urease inhibitors: synthesis, SAR, and biological evaluation” (Journal of Enzyme Inhibition and Medicinal Chemistry, 2019) are described below.

The structures appear in SMILES notation. In brackets after ≈: the same amount, converted by molar mass. Read-outs that look alike come from different tables or passages of the source.

The test system of data set [1] is H. pylori. Put plainly: Minimum inhibitory concentration, broth microdilution (CLSI). The format is cell-based, Helicobacter pylori (ATCC 43504). The settings on record: Helicobacter pylori. On the procedure:
H. pylori (ATCC 43504; […] The minimum inhibitory concentration (MIC) values were determined using the broth microdilution protocol according to the methods of the Clinical and Laboratory Standards Institute (CLSI)[21].
A general note: Broth dilution looks for growth in wells or tubes with falling amounts of substance.

Data set [2] concerns the target T1, urease in intact H. pylori cell (Helicobacter pylori, UniProt P69996).
T1 construct: H. pylori urease was replaced by 25 µL of cell suspension (4.0 × 10^7 CFU/mL); endogenous in cells; host or cells: intact H. pylori ATCC 43504 cells
Put plainly: Urease inhibition in intact H. pylori cell (indophenol method). The format is cell-based.

Data set [3] in a line: Cytotoxicity MTT assay, P69. It is filed as cell-based. To be noted: human, P69 cells (normal prostate cell line), 25 μg/mL. On the procedure:
(§1) The stock solutions of the selected compounds (250 µg/mL, in PBS) were prepared in medium. L-02 cells and P69 cells were grown in medium (90% RPMI-1640 medium, 10% foetal bovine serum, 1% penicillin/streptomycin) and maintained at 37 °C in a humidified atmosphere containing 5% CO2, respectively. Cells were seeded in 96-well cell culture plates. On the day when seeding, the cells were exposed to 250 µg/mL of compounds and further cultured for 72 h at 37 °C. Cell proliferation was then determined using the thiazolyl blue tetrazolium bromide (MTT) assay.

The target in data set [4] is T2, Jack bean urease (Canavalia ensiformis, UniProt P07374).
T2 construct: purchased
T2 sequence (P07374 whole entry, looked up): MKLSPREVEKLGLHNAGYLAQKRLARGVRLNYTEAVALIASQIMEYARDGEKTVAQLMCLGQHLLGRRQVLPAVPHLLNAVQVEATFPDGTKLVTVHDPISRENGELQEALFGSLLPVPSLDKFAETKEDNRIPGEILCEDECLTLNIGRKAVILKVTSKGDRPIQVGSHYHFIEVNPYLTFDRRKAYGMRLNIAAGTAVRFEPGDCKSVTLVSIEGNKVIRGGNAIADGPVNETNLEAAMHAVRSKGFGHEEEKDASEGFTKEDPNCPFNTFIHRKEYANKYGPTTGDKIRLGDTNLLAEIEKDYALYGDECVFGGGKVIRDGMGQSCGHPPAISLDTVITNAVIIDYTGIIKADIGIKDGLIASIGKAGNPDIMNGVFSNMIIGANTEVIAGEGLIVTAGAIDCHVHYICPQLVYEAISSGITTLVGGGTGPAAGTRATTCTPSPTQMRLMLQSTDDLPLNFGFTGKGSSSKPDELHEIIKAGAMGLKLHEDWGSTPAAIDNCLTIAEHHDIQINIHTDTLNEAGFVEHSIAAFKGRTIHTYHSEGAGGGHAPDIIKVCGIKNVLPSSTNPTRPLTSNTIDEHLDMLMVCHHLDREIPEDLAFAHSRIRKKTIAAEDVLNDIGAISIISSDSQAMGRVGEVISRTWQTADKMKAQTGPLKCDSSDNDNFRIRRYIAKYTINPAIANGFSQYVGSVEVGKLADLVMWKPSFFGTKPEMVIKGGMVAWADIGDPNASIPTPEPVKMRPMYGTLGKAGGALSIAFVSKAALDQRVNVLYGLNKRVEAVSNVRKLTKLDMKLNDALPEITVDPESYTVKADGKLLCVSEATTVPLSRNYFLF
Put plainly: Ligand affinity by surface plasmon resonance (SPR). It is filed as binding. The settings on record: for kon: pH 7.4; for koff: immobilised urease, PBS pH 7.4. On the procedure:
The binding kinetics of selected compounds were assayed via surface plasmon resonance (SPR) using an OPEN SPR instrument (Nicoya Lifesciences, Kitchener, Canada). First, urease dissolved (50 µg/mL) in PBS buffer (1 mM KH2PO4, 155 mM NaCl, 3 mM Na2HPO4-12H2O, pH 7.4), was immobilised to a CM5 chip using a standard amine coupling procedure. Then, SPR measurements were carried out in PBS, and stock solutions were diluted in the same buffer. Data were collected with OpenSPR control software. Experiments were performed by monitoring the refractive index changes as a function of time under constant flow rate of 20 µL/min. The relative amount of inhibitor bound to the urease was determined by measuring the net increase in refractive index over time compared to control running buffer. There is an inline subtraction of reference surface during the run. This change is usually reported in response units (RU). Sensograms were processed and analysed using TraceDrawer software. The binding curves were fit to determine the equilibrium dissociation constant (KD).
In the present paper, the pure Jack bean urease from commercial was used for this assay because of non-availability of pure H. pylori urease. […] For efficient and tight ligand binding, the rate constant koff is of particular interest, because koff has a potential to differentiate indistinguishable compounds with similar affinities.

The target of data set [5] is T2, Jack bean urease. Kind of data set: Enzyme kinetic study (indophenol method). To be noted: for Type of inhibition: Jack bean urease; for Ki': dissociation constant of urease-urea-inhibitor complex. It is filed as biochemical. On the procedure: Based on the indophenol method, the velocity of ammonia production (V) was measured in the presence of concentration gradients of urea ([S]) for every specific concentration of selected compounds ([I]). Nonlinear fitting curves to data of V and [S] were used to determine the type of enzyme inhibition based on the general kinetics equation (Equation (1)). Subsequently, the resulted fitting constants ( Km/Vmax(1+[I]/Ki) or 1/Vmax(1+[I]/Ki′) ) and [I] were linearly fitted to give kinetic parameters Ki and Ki', respectively. The experimental assay was performed against a pure urease (Jack bean urease) for the consideration of precision. (1) V=Vmax[S]/Km(1+[I]/Ki)+(1+[I]/K^′i)[S]
Mazzei et al. confirmed that urease shared the mechanism of catalysis and inhibition regardless of the biological sources[27]^,[28]. For excluding the possible interference, a pure urease (Jack bean urease) was therefore used for kinetic assays. As an example, Figure 2 describes the preincubation-time dependence of urease inhibition by b19. The suppressed urease activity maintained at relatively constant values with the increasing preincubation time under different concentrations of b19, resulting in nearly equal IC50 values.
Similarly, kinetic parameters ( Ki and Ki' ) and inhibition types of other compounds were also determined and are shown in Table 3.

The nature of data set [6]: Cytotoxicity MTT assay, L-02. It is filed as cell-based. To be noted: human, L-02 cells (normal hepatic cell line), 25 μg/mL. On the procedure:
as §1

The target of data set [7] is T3, H. pylori urease (Helicobacter pylori, UniProt P69996).
T3 construct: endogenous in cells; host or cells: H. pylori ATCC 43504; sonicated, supernatant desalted on Sephadex G-25 (crude extract)
T3 sequence (P14916 whole entry): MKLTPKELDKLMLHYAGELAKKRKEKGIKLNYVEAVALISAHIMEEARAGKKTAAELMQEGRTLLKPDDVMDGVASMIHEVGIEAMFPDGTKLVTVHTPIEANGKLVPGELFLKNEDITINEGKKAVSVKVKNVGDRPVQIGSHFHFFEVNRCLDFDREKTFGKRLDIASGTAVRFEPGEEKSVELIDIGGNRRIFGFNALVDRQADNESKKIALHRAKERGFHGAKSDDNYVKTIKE
T3 sequence (P69996 whole entry): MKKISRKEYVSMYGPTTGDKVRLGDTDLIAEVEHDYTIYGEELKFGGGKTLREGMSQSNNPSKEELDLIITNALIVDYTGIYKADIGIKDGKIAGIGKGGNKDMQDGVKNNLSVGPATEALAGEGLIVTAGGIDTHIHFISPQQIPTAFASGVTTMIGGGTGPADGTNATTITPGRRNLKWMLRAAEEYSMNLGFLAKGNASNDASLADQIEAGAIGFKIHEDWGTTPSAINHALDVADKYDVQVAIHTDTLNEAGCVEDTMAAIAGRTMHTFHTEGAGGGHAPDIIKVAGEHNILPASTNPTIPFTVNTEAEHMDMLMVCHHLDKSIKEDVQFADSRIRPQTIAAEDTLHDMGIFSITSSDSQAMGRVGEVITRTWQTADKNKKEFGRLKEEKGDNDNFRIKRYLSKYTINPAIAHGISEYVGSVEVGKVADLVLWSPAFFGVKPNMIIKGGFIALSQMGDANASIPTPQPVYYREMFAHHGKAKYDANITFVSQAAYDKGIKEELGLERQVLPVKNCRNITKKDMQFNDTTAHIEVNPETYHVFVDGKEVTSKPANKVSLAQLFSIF
Put plainly: Urease inhibition, extracted H. pylori urease (indophenol method). The settings on record: for IC50: IC50 Extracted urease, extracted H. pylori urease. It is filed as biochemical. On the procedure: For urease inhibition assays, 50 mL broth cultures (2.0 × 10^8 CFU/mL) were centrifuged (5000×g, 4 °C) to collect the bacteria, and after washing twice with phosphate-buffered saline (pH 7.4), the H. pylori precipitation was stored at –80 °C for 8 h, and then was returned to room temperature, and after addition of 3 mL of distilled water and protease inhibitors, sonication was performed for 60 s. Following centrifugation (15,000×g, 4 °C), the supernatant was desalted through Sephadex G-25 column (PD-10 columns, Amersham Pharmacia Biotech, Uppsala, Sweden). The resultant crude urease solution was added to an equal volume of glycerol and stored at 4 °C until use in the experiment.
Urease activity was determined in the 96-well assay plate by measuring ammonia production using the indophenol method as described by Weatherburn[20]. Briefly, to each well, 50 µL of urea (10 mM) in phosphate buffer solution was added in a mixture of 25 µL (10 U) of H. pylori urease and 25 µL of the test compound, which was incubated at 37 °C for 0.5 h. Fifty µL of phenol reagent (containing 127 mM phenol and 0.168 mM sodium nitroprusside) and 50 µL of alkali reagent (containing 125 mM NaOH and 0.168 mM NaOCl) were added in turn. The resulted mixture was incubated at 37 °C for another 0.5 h for colouration developing. The increasing absorbance was measured at 630 nm after 50 min using a microplate reader (Molecular Devices, San Jose, CA). Percentage inhibitions were calculated from the following formula (Equation (1)). Experiments were performed in triplicate and AHA was used as reference drug, and the IC50 value was determined as the concentration of compound that give 50% inhibition of maximal activity. As for the urease assay of intact cells, 25 µL (10 U) of H. pylori urease was replaced by 25 µL of cell suspension (4.0 × 10^7 CFU/mL).

T1 sequence (P69996 whole entry): as above
T1 sequence (P14916 whole entry, further chain): as the sequence (P14916 whole entry) above

The MIC is the lowest concentration found to suppress growth. In general, IC50 refers to the concentration needed to halve the response being measured. In general, viability refers to a read-out of living cells in per cent, often relative to untreated cells. For orientation: Kd means a measure of binding affinity in units of concentration. For orientation: kon means the second-order rate constant of association. Higher therefore signals fast association. Broadly, the koff is the rate constant with which the complex falls apart. A low value points to a long-lived complex. For orientation: Ki means a dissociation constant, usually derived from enzyme kinetics or from competition with a known ligand. By melting point is commonly meant the temperature, or range, at which the solid turns liquid. `Cc1ccc(CC(=O)NC(N)=S)cc1` [b16] displayed a melting point of 171.2 to 172.5 °C. Besides, in data set [1] (pH=4.0, read-out: MIC pH=4.0), the MIC was determined as 2 µM (≈ 0.417 µg/mL). The MIC in data set [1] (pH=7.0, read-out: MIC pH=7.0) came out at 64 µM (≈ 13.3 µg/mL). Also, it took 35700 ± 1700 nM to reach half-maximal inhibition in data set [2] (IC50). In addition, the viability at 72 h, 25 µg/mL in data set [3] came to 89.9%. In data set [4], this compound displayed a Kd of 162 ± 3.8 nM and a kon of 501000 M⁻¹ s⁻¹. Further, the koff in data set [4] (pH 7.4, SPR) worked out at 0.081 s⁻¹. In data set [5], the Ki was determined as 1280 nM, the Type of inhibition result is “Reversible” and the “Ki'” value was 2840 nM. In addition, the viability at 72 h, 25 µg/mL in data set [6] amounted to 114%. Inhibition in data set [7] was half-maximal at 5200 ± 320 nM (IC50).
`NC(=S)NC(=O)Cc1ccc(Cl)cc1` [b19] showed a melting point of 184.1 to 186.6 °C. In data set [1] (pH=4.0, read-out: MIC pH=4.0), the MIC was 0.5 µM (≈ 0.114 µg/mL). Also, the MIC in data set [1] (pH=7.0, read-out: MIC pH=7.0) is 32 µM (≈ 7.32 µg/mL). Half-maximal inhibition in data set [2] (IC50) required 3860 ± 100 nM. For the same compound, the “fold more potent than AHA, urease in intact cell” value in data set [2] (ratio of IC50 values vs AHA) is 44 fold. For the same compound, in data set [3], the viability at 72 h, 25 µg/mL was greater than 93%. Moreover, in data set [4], binding was characterised by a dissociation constant (Kd) of 4.5 ± 0.16 nM and the kon was 3.82e+06 M⁻¹ s⁻¹. Further, the koff in data set [4] (SPR) is reported as 1.73 × 10^–3 ± 2.57 × 10^–5 s^–1. For the same compound, the koff in data set [4] (pH 7.4, SPR) was 0.0016 s⁻¹. Moreover, in data set [5], the Ki turned out to be 40 nM, the Type of inhibition result was “Reversible” and the “Ki'” value stood at 160 nM. Besides, in data set [5] (different preincubation times and concentrations), the “preincubation-time dependence of urease inhibition” value is “time-independent”. For the same compound, the inhibition mechanism result in data set [5] (from Ki and Ki') is “mixed competitive”. Further, the viability at 72 h, 25 µg/mL in data set [6] was greater than 93%. 160 ± 50 nM corresponded to half-maximal inhibition in data set [7] (IC50). Besides, the “fold more potent than AHA, extracted urease” value in data set [7] (ratio of IC50 values vs AHA) stood at 170 fold.
Compound `NC(=S)NC(=O)Cc1ccc(F)cc1` [b23] displayed a melting point of 165.4 to 166.5 °C. Moreover, the MIC in data set [1] (pH=4.0, read-out: MIC pH=4.0) stood at 8 µM (≈ 1.7 µg/mL). Besides, the minimal inhibitory concentration (MIC) in data set [1] (pH=7.0, read-out: MIC pH=7.0) was greater than 64 µM. Further, half-maximal inhibition in data set [2] (IC50) required 93600 ± 5500 nM. Further, the viability at 72 h, 25 µg/mL in data set [3] amounted to 97.6%. In data set [4], this compound yielded a Kd of 569 ± 21.6 nM and a kon of 54300 M⁻¹ s⁻¹. This compound also gave a koff in data set [4] (pH 7.4, SPR) of 0.0309 s⁻¹. For the same compound, in data set [5], the Ki was 3530 nM, the Type of inhibition entry is reported as “Reversible” and the “Ki'” value came out at 9670 nM. Besides, the viability at 72 h, 25 µg/mL in data set [6] was determined as 96.1%. Moreover, 14600 ± 1000 nM corresponded to half-maximal inhibition in data set [7] (IC50).
